Results on 5 molecules are retold here after article PMC9524151, “Peptides derived from hookworm anti-inflammatory proteins suppress inducible colitis in mice and inflammatory cytokine production by human cells” (Frontiers in Medicine, 2022).

One data set concerns TNBS-induced colitis. As to the kind of experiment: TNBS colitis model, oral administration. The following applies: oral 5 mg/kg; compared with vehicle treated mice.
For data set [1] the following is noted: 100% human serum, 37°C, RP-HPLC at 214 nm, triplicate; for relative rate of degradation in human serum over 24 h: 0, 3, 8, 24 h.
Another data set in a line: in vitro. Conditions: male, human, human serum.

Ends that are not written are not given here. Some results are limits rather than exact numbers.

In the case of `O=C(O)c1cc(/N=N/c2ccc(S(=O)(=O)Nc3ccccn3)cc2)ccc1O` [sulfasalazine], the “colon length after oral administration” value in the data set with TNBS-induced colitis is given as “Neither ES2-10 nor sulfasalazine were distinct from the vehicle treated mice”.
Consider TPEEHPLLMDLMGDPKKAEE [AIP2-20D6P], for which the “relative rate of degradation in human serum over 24 h” value in data set [1] was “degraded slower than AIP1-13 and ES2-10 but was less stable than AIP2-20”.
In general, share remaining refers to what is left of the initial amount, in per cent. A higher share remaining goes with greater stability. For the molecule SQKEKDLLKE [ES2-10], in “in vitro”, the fraction remaining at 4 h, 20 μM was under 10%.
Take TPEEHDLLMDLMGDPKKAEE [AIP2-20]: in data set [1], the “relative rate of degradation in human serum over 24 h” value was “degraded slower than AIP1-13 and ES2-10”; the “detection of peptide in human serum after 24 h” value was “could still be detected after 24 h”. Further, in the data set “in vitro”, the amount remaining at 8 h, 20 μM is over 50%.
For PSKEKADLGKYKA [AIP1-13], the fraction remaining at 4 h, 20 μM in the data set “in vitro” is under 10%.
